pEC50: −log10 of the molar value.
Each compound was assayed against human mGluR5 receptor (Homo sapiens (Human), UniProt P41594) (assay: Calcium influx assay based on fluorescence (mGluR5 positive allosteric modulator activity)). Conditions: human mGluR5 receptor-overexpressed HEK293 cell line; L-glutamate EC20; Fluo-4, FLIPR; read-out: Human mGluR5 PAM EC50.
Description: Efficacy as a positive allosteric modulator (PAM) of mGluR5 of the compounds of the Examples was tested as follows:
Calcium Influx Assay Based on Fluorescence
Ca^2+ (calcium) influx assay is an experiment for measuring the activity of a positive allosteric modulator of mGluR5 receptor in which human mGluR5 receptor-overexpressed HEK293 cell line is used. The day before the experiment, cells were prepared in a cell culture medium (DMEM, 5% FBS) with the density of 80,000/well, and 100 μl of cells were dispensed into each well of a poly-D-lysine-coated 96-well plate. Cells were incubated in a 5% CO2, 37° C. incubator. The next day, the cell culture medium was removed from the plate, and 100 μl of 1× Fluo-4 calcium indicator diluted with a buffer (1× Hank's balanced salt solution, 20 mM HEPES, 2.5 mM probenecid) were added to each well and incubated at 37° C. for 1 hour. The compound stock solutions were prepared in 100% DMSO, and the compounds were serially diluted with a 1/4 dilution to 6 or 7 concentrations (final concentration was 10 μM to 10 nM). The diluted compound solutions were added to the plate with 0.1 to 0.2% of final DMSO concentration. 1 hour after the addition of Fluo-4 calcium indicator, L-glutamate (EC20 concentration) and the test compound solutions were added to the plate, and Ca^2+ reaction was then measured by FLIPR at room temperature. The activity of the compounds was standardized on the basis of the results of maximum value-minimum value of fluorescent reaction, and the activity value was calculated on the basis that no activity on glutamate EC20 is 0% and the reaction to glutamate maximum value is 100%.

Chain of human mGluR5 receptor (P41594 21-1212): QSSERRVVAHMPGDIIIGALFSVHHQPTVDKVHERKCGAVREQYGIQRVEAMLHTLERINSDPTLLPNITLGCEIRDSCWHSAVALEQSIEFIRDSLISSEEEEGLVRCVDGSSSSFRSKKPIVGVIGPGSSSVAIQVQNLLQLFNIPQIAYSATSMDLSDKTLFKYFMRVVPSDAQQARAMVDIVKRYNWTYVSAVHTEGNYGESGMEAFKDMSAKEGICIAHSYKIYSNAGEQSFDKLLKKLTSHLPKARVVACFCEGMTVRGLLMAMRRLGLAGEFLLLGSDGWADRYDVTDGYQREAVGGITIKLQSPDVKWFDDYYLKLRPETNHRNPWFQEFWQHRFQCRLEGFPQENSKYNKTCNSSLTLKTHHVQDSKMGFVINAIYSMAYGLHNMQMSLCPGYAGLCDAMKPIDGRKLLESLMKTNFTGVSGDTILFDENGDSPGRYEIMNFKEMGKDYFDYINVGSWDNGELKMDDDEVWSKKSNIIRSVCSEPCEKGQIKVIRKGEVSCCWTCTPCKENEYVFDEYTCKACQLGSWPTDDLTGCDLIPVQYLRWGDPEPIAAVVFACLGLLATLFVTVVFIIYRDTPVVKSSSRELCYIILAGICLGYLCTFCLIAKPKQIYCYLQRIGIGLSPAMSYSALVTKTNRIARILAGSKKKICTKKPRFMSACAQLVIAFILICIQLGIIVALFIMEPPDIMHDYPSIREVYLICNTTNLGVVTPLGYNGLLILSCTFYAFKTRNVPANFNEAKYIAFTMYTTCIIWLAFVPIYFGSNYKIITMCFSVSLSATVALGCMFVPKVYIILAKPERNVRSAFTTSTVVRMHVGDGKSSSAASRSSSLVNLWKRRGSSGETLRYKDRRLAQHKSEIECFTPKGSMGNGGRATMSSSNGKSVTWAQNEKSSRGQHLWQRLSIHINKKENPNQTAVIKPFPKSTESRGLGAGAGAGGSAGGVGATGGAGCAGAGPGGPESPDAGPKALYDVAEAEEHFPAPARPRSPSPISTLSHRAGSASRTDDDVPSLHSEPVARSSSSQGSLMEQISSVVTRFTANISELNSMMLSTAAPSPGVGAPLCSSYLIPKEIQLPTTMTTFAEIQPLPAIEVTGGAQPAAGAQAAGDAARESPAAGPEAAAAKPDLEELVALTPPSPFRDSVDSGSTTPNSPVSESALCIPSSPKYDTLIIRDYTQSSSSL

pEC50, ≥ 7.00:
Fc1ccc(-c2cnc3nc(COc4ccccc4)cn3c2)c(F)c1 [Example 3, 6-(2,4-difluorophenyl)-2-phenoxymethylimidazo[1,2-a]pyrimidine]
Cc1ccccc1-c1cnc2nc(COc3ccccc3)cn2c1 [Example 5, 6-(2-methylphenyl)-2-phenoxymethylimidazo[1,2-a]pyrimidine]
Cc1cc(F)ccc1-c1cnc2nc(COc3ccccc3)cn2c1 [Example 6, 6-(4-fluoro-2-methylphenyl)-2-phenoxymethylimidazo[1,2-a]pyrimidine]
OCc1cc(F)ccc1-c1cnc2nc(COc3ccccc3)cn2c1 [Example 25, 6-(4-fluoro-2-hydroxymethylphenyl)-2-phenoxymethylimidazo[1,2-a]pyrimidine]
Fc1ccc(OCc2cn3cc(-c4ccc(F)cc4Cl)cnc3n2)cc1 [Example 67, 6-(2-chloro-4-fluoro-phenyl)-2-[(4-fluorophenoxy)methyl]imidazo[1,2-a]pyrimidine]
Fc1cccc(OCc2cn3cc(-c4ccc(C(F)(F)F)nc4)cnc3n2)c1 [Example 80, 2-[(3-fluorophenoxy)methyl]-6-[6-(trifluoromethyl)-3-pyridyl)imidazo[1,2-a]pyrimidine]
Cc1cc(-c2cnc3nc(COc4ccc(F)cc4)cn3c2)cnc1F [Example 91, 6-(6-fluoro-5-methyl-3-pyridyl)-2-[(4-fluorophenoxy)methyl]imidazo[1,2-a]pyrimidine]
Cc1cc(F)ccc1-c1cnc2nc(COc3cc(F)ccn3)cn2c1 [Example 116, 6-(4-fluoro-2-methyl-phenyl)-2-[(4-fluoro-2-pyridyl)oxymethyl)imidazo[1,2-a]pyrimidine]
Fc1ccc(-c2cnc3nc(COc4ccccn4)cn3c2)nc1 [Example 132, 6-(5-fluoro-2-pyridyl)-2-(2-pyridyloxymethyl)imidazo[1,2-a]pyrimidine]
Cc1cc(F)ccc1-c1cnc2nc(COc3ccnc(F)c3)cn2c1 [Example 162, 6-(4-fluoro-2-methylphenyl)-2-(2-fluoropyridin-4-yloxymethyl)imidazo[1,2-a]pyrimidine]
Cc1ccccc1-c1cnc2nc(COc3ccnc(F)c3)cn2c1 [Example 168, 6-(2-methylphenyl)-2-(2-fluoropyridin-4-yloxymethyl)imidazo[1,2-a]pyrimidine]
Cc1cc(F)ccc1-c1cnc2nc(COc3ccccn3)cn2n1 [Example 188, 2-(4-fluoro-2-methyl-phenyl)-6-(2-pyridyloxymethyl)imidazo[1,2-b][1,2,4]triazine]
FCc1cc(F)ccc1-c1cnc2nc(COc3ccccn3)cn2c1 [Example 198, 6-[4-fluoro-2-(fluoromethyl)phenyl]-2-(2-pyridyloxymethyl)imidazo[1,2-a]pyrimidine]

From US10100057B2, “Imidazopyrimidine and imidazotriazine derivative, and pharmaceutical composition comprising the same” (SK BIOPHARMACEUTICALS CO., LTD., priority 2016, dated 2018)
